This note sets out measurements from US20220249454A1, “INHIBITORS OF MONOCARBOXYLATE TRANSPORTERS FOR CANCER IMMUNOTHERAPY” (NIROGY THERAPEUTICS, INC., priority 2021, published 2022).

In this experiment the test system is panel of solid and haemotological tumor cell lines (e.g., Hs578t, SiHa, MDA-MB-231). The experiment can be described thus: MTS cell proliferation assay (cytotoxicity). Particulars: 72-96 hours, 10 mM lactate medium or RPMI 1640 medium, cell line not stated. It counts as cell-based. The protocol: The anti-proliferation effect of MCT inhibition was investigated across a panel of solid and haemotological tumor cell lines. Cells were routinely cultured in their appropriate growth medium. On day 1, between 10,000-25,000 cells/well (e.g., Hs578t: 15,000 cells/well, SiHa: 10,000 cells/well, and MDA-MB-231: 25,000 cells/well) were plated into 96-well plates. 100 μL. of phosphate buffered saline solution was added to the external wells to prevent media evaporation. Plates were incubated in growth medium overnight at 37° C. in the presence of 5% CO2. On day 2, dry weight compound stocks were dissolved to a concentration of 10 mM in 100% DMSO. Compounds were further diluted in the assay medium; 10 mM lactate medium (without glucose, pyruvate, and glutamine) or RPMI 1640 medium (without pyruvate and glutamine) to generate a final dose range of 1 nM to 10 μM. Growth medium in the 96-well plate was replaced with the assay medium (10 mM lactate medium or RPMI medium or appropriate medium), and compounds were added to each well in the plate at different concentrations via serial dilution or pre-prepared solutions in assay medium. Plates were then incubated at 37° C. in the presence of 5% CO2 for a further 72-96 hours. On day 2-5, assay media was changed to 100 uL of DMEM/F12 and 20 μL of CellTiter 96 AQ MTS reagent was added to each well and the plate was returned to the incubator for 1-2 hours. MTS is bioreduced by NADPH or NADH produced by dehydrogenase enzymes in metabolically active cells into a coloured formazan product that is soluble in tissue culture medium. The amount of coloured formazan product is directly proportional to the number of living cells in culture. The absorbance of the plates was read on a Spectramax M5e plate reader using […] measurement wavelength. Dose response curves were plotted and IC50 values were calculated using GraphPad Prism. The IC50 value is equivalent to the concentration of compound that causes 50% inhibition of growth calculated from the compound treated signal to the vehicle treated signal.
Cytotoxicity of selected compounds is listed in Table 1, where IC50: A=<1 uM; B=1-10 uM; C=>10 uM; and NT=Not Tested.
(In general: Formazan colour is commonly taken as a measure of viable cells.)

Molecules are shown by their SMILES. Bounds are passed on as bounds.

For the molecule `CN(C(=O)N1CCCCC1)c1cc2oc(=O)c(C(=O)O)cc2s1` [Compound 2.045, 2-(N-methylpiperidine-1-carboxamido)-5-oxo-5H-thieno[3,2-b]pyran-6-carboxylic acid], the IC50 (usually the point on the concentration scale where inhibition reaches its midpoint) (Table 2 (Group 2)) was less than 1 µM.
Consider `COc1ccc(NC(=O)N(C)c2cc3oc(=O)c(C(=O)O)cc3s2)cc1` [Compound 2.008, 2-(3-(4-methoxyphenyl)-1-methylureido)-5-oxo-5H-thieno[3,2-b]pyran-6-carboxylic acid], for which the IC50 (Table 2 (Group 2)) is less than 1 µM.
The same measure, in the same setting: as for `CN(C(=O)Nc1ccc(O)cc1)c1cc2oc(=O)c(C(=O)O)cc2s1` [Compound 2.023, 2-(3-(4-hydroxyphenyl)-1-methylureido)-5-oxo-5H-thieno[3,2-b]pyran-6-carboxylic acid], the figure is less than 1 µM; as for `CN(C(=O)Nc1cccc(C(F)(F)F)c1)c1cc2oc(=O)c(C(=O)O)cc2s1` [Compound 2.011, 2-(1-methyl-3-(3-(trifluoromethyl)phenyl)ureido)-5-oxo-5H-thieno[3,2-b]pyran-6-carboxylic acid], less than 1 µM.
As to `CN(c1cc2oc(=O)c(C(=O)O)cc2s1)S(=O)(=O)c1ccc(F)cc1` [Compound 1.026, 2-[(4-Fluoro-benzenesulfonyl)-methyl-amino]-5-oxo-5H-thieno[3,2-b]pyran-6-carboxylic acid], the IC50 (Table 1 (Group 1)) was less than 1 µM.
Take `CN(Cc1cccs1)c1cc2oc(=O)c(C(=O)O)cc2s1` [Compound 1.014, 2-(methyl(thiophen-2-ylmethyl)amino)-5-oxo-5H-thieno[3,2-b]pyran-6-carboxylic acid]: where the note is “Table 1 (Group 1)”, the IC50 is less than 1 µM.
With `CN(C(=O)Nc1ccccc1F)c1cc2oc(=O)c(C(=O)O)cc2s1` [Compound 2.024, 2-(3-(2-fluorophenyl)-1-methylureido)-5-oxo-5H-thieno[3,2-b]pyran-6-carboxylic acid], the IC50 (Table 2 (Group 2)) was less than 1 µM.
`CN(C(=O)c1ccc(-c2ccccc2)cc1)c1cc2oc(=O)c(C(=O)O)cc2s1` [Compound 2.028, 2-(N-methyl-[1,1′-biphenyl]-4-carboxamido)-5-oxo-5H-thieno[3,2-b]pyran-6-carboxylic acid] yielded an IC50 (Table 2 (Group 2)) of less than 1 µM.
On the same count and under the same terms, as for `CN(C(=O)Nc1ccc(C(F)(F)F)cc1)c1cc2oc(=O)c(C(=O)O)cc2s1` [Compound 2.012, 2-(1-methyl-3-(4-(trifluoromethyl)phenyl)ureido)-5-oxo-5H-thieno[3,2-b]pyran-6-carboxylic acid], the figure is less than 1 µM; as for `CCOc1ccc(NC(=O)N(C)c2cc3oc(=O)c(C(=O)O)cc3s2)cc1` [Compound 2.021, 2-(3-(4-ethoxyphenyl)-1-methylureido)-5-oxo-5H-thieno[3,2-b]pyran-6-carboxylic acid], less than 1 µM; as for `COc1ccccc1NC(=O)N(C)c1cc2oc(=O)c(C(=O)O)cc2s1` [Compound 2.002, 2-(3-(2-methoxyphenyl)-1-methylureido)-5-oxo-5H-thieno[3,2-b]pyran-6-carboxylic acid], less than 1 µM.
Under “Table 1 (Group 1)”, `O=C(O)c1cc2sccc2oc1=O` [Compound 1.029, 5-oxo-5H-thieno[3,2-b]pyran-6-carboxylic acid] displayed an IC50 of 1 to 10 µM.
Take `CN1CCC(CN(C)c2cc3oc(=O)c(C(=O)O)cc3s2)CC1` [Compound 1.012, 2-(methyl((1-methylpiperidin-4-yl)methyl)amino)-5-oxo-5H-thieno[3,2-b]pyran-6-carboxylic acid]: the IC50 (Table 1 (Group 1)) was less than 1 µM.
For the setting “Table 2 (Group 2)”, `CN(C(=O)c1ccc2cc(F)ccc2c1)c1cc2oc(=O)c(C(=O)O)cc2s1` [Compound 2.029, 2-(6-fluoro-N-methyl-2-naphthamido)-5-oxo-5H-thieno[3,2-b]pyran-6-carboxylic acid] displayed an IC50 of less than 1 µM.
The same measure, in the same setting: under `COc1ccc(NC(=O)N(C)c2cc3oc(=O)c(C(=O)O)cc3s2)c(OC)c1` [Compound 2.014, 2-(3-(2,4-dimethoxyphenyl)-1-methylureido)-5-oxo-5H-thieno[3,2-b]pyran-6-carboxylic acid] stands less than 1 µM.
As for `CN(C(=O)c1cccc(C(F)(F)F)c1)c1cc2oc(=O)c(C(=O)O)cc2s1` [Compound 1.015, 2-[Methyl-(3-trifluoromethyl-benzoyl)-amino]-5-oxo-5H-thieno[3,2-b]pyran-6-carboxylic acid], the IC50 (Table 1 (Group 1)) is less than 1 µM.
The same measure, in the same setting: under `COc1cccc(CN(C)c2cc3oc(=O)c(C(=O)O)cc3s2)c1` [Compound 1.004, 2-((3-methoxybenzyl)(methyl)amino)-5-oxo-5H-thieno[3,2-b]pyran-6-carboxylic acid] stands less than 1 µM.
The molecule `CCOc1cc(NC(=O)N(C)c2cc3oc(=O)c(C(=O)O)cc3s2)ccc1F` [Compound 2.017, 2-(3-(3-ethoxy-4-fluorophenyl)-1-methylureido)-5-oxo-5H-thieno[3,2-b]pyran-6-carboxylic acid] came in with an IC50 (Table 2 (Group 2)) of less than 1 µM.
Regarding `CN(Cc1cccnc1)c1cc2oc(=O)c(C(=O)O)cc2s1` [Compound 1.013, 2-(methyl(pyridin-3-ylmethyl)amino)-5-oxo-5H-thieno[3,2-b]pyran-6-carboxylic acid], where the note is “Table 1 (Group 1)”, the IC50 was less than 1 µM.
Take `COc1cccc(NC(=O)N(C)c2cc3oc(=O)c(C(=O)O)cc3s2)c1` [Compound 2.003, 2-(3-(3-methoxyphenyl)-1-methylureido)-5-oxo-5H-thieno[3,2-b]pyran-6-carboxylic acid]: the IC50 (Table 2 (Group 2)) was less than 1 µM.
`CN(Cc1cccc(F)c1)c1cc2oc(=O)c(C(=O)O)cc2s1` [Compound 1.003, 2-((3-fluorobenzyl)(methyl)amino)-5-oxo-5H-thieno[3,2-b]pyran-6-carboxylic acid]: the IC50 (Table 1 (Group 1)) was less than 1 µM.
With `CN(C(=O)N1CCCC1)c1cc2oc(=O)c(C(=O)O)cc2s1` [Compound 2.046, 2-(N-methylpyrrolidine-1-carboxamido)-5-oxo-5H-thieno[3,2-b]pyran-6-carboxylic acid], the IC50 (Table 2 (Group 2)) is less than 1 µM.
`CC(C)c1csc(NC(=O)N(C)c2cc3oc(=O)c(C(=O)O)cc3s2)n1` [Compound 2.049, 2-(3-(4-isopropylthiazol-2-yl)-1-methylureido)-5-oxo-5H-thieno[3,2-b]pyran-6-carboxylic acid] yielded an IC50 (Table 2 (Group 2)) of less than 1 µM.
For the setting “Table 1 (Group 1)”, `CN(Cc1ccc(C(F)(F)F)cc1)c1cc2oc(=O)c(C(=O)O)cc2s1` [Compound 1.023, 2-[Methyl-(4-trifluoromethyl-benzyl)-amino]-5-oxo-5H-thieno[3,2-b]pyran-6-carboxylic acid] displayed an IC50 of less than 1 µM.
In the case of `CN(C(=O)Nc1ccccc1Cl)c1cc2oc(=O)c(C(=O)O)cc2s1` [Compound 2.001, 2-(3-(2-chlorophenyl)-1-methylureido)-5-oxo-5H-thieno[3,2-b]pyran-6-carboxylic acid], the IC50 (Table 2 (Group 2)) is less than 1 µM.
The same measure, in the same setting: under `CN(C(=O)N[C@H]1CC[C@H](C)CC1)c1cc2oc(=O)c(C(=O)O)cc2s1` [Compound 2.020, 2-(1-methyl-3-((1r,4r)-4-methylcyclohexyl)ureido)-5-oxo-5H-thieno[3,2-b]pyran-6-carboxylic acid] stands less than 1 µM; under `CN(C(=O)N1CCOCC1)c1cc2oc(=O)c(C(=O)O)cc2s1` [Compound 2.044, 2-(N-methylmorpholine-4-carboxamido)-5-oxo-5H-thieno[3,2-b]pyran-6-carboxylic acid], less than 1 µM.
For `CN(C(=O)Nc1ccc(F)cc1)c1cc2oc(=O)c(C(=O)O)cc2s1` [Compound 2.005, 2-(3-(4-fluorophenyl)-1-methylureido)-5-oxo-5H-thieno[3,2-b]pyran-6-carboxylic acid], the IC50 (Table 2 (Group 2)) is less than 1 µM.
`CN(C(=O)NC1CCOCC1)c1cc2oc(=O)c(C(=O)O)cc2s1` [Compound 2.043, 2-(1-methyl-3-(tetrahydro-2H-pyran-4-yl)ureido)-5-oxo-5H-thieno[3,2-b]pyran-6-carboxylic acid]: the IC50 (Table 2 (Group 2)) was less than 1 µM.
The same measure, in the same setting: under `CN(C(=O)Nc1nc(C(C)(C)C)cs1)c1cc2oc(=O)c(C(=O)O)cc2s1` [Compound 2.048, 2-(3-(4-(tert-butyl)thiazol-2-yl)-1-methylureido)-5-oxo-5H-thieno[3,2-b]pyran-6-carboxylic acid] stands less than 1 µM; under `CN(C(=O)NC1CCCC1)c1cc2oc(=O)c(C(=O)O)cc2s1` [Compound 2.027, 2-(3-cyclopentyl-1-methylureido)-5-oxo-5H-thieno[3,2-b]pyran-6-carboxylic acid], less than 1 µM.
The molecule `CN(C(=O)C1CCCCC1)c1cc2oc(=O)c(C(=O)O)cc2s1` [Compound 1.010, 2-(N-methylcyclohexanecarboxamido)-5-oxo-5H-thieno[3,2-b]pyran-6-carboxylic acid] gave an IC50 (Table 1 (Group 1)) of less than 1 µM.
Where the note is “Table 2 (Group 2)”, `CN(C(=O)Nc1ccc(F)c(F)c1)c1cc2oc(=O)c(C(=O)O)cc2s1` [Compound 2.040, 2-(3-(3,4-difluorophenyl)-1-methylureido)-5-oxo-5H-thieno[3,2-b]pyran-6-carboxylic acid] showed an IC50 of less than 1 µM.
